Experimental data taken from patent publication US7202239B2, “Cyclohexylphenyl carboxamides tocolytic oxytocin receptor antagonists” (Wyeth, priority 2001, dated 2007).

Biological target: human V2 vasopressin receptor subtype (Homo sapiens, UniProt P30518)
Assay: Vasopressin binding in CHO cell membranes expressing human vasopressin V2 subtype receptors
Details: [3H]arginine vasopressin; for inhibition at 0.1 µM / V2 % inhibition at 100 nM: 100 nM; for IC50: value in parentheses
From the text: Vasopressin Binding in Chinese Hamster Ovary Cell Membranes Expressing Human Vasopressin V2 Subtype Receptors
Chinese Hamster Ovary (CHO) cells stably transfected with the human V2 subtype receptors were obtained from M. Thibonnier, Case Western Reserve University School of Medicine, Cleveland, Ohio.
A. Passaging and Amplification of Cells:
CHO cells transfected with the human vasopressin V2 subtype receptors obtained from M. Thibonnier (pZeoSV vector) are allowed to grow to confluency (approx. >90%) in T-150 flasks under sterile conditions, in a cell culture medium of F-12 Nutrient Mixture (HAM) with L-glutamine (Gibco Cat. # 11765-054) containing 15 mM HEPES (Gibco Cat. # 15630-080), 1% antibiotic/antimycotic (add 5 mL 100×, Gibco Cat. # 15240-062 per 500 mL F-12), 250 μg/mL Zeocin (add 1.25 mL of 100 mg/mL Invitrogen R-250-01 per 500 mL F-12) and 10% Fetal Bovine Serum (Qualified, heat inactivated, Gibco Cat. # 16140-063). The medium is removed by aspiration and the cells washed with 10 mL of Hank's Balanced Salt solution (Gibco Cat. # 14175-095). The salt solution is removed by aspiration and the cells trypsinized with 5 mL of trypsin-EDTA (0.05% trypsin, 0.53 mM EDTA-4Na, Gibco Cat. # 25300-070) for 1 min. The trypsin is removed by aspiration and the cells dislodged by tapping. Cell Culture medium (e.g. 30 mL for 1:30 split) is immediately added and mixed well to inactivate trypsin. 1 mL of detached cells is added to new culture flasks containing fresh Cell Culture medium (e.g. into 25 mL per T-150 flask), and mixed gently. The cells are incubated at 37° C. in 5% CO2. The medium is changed at 3 to 4 day interval (or as appropriate). The cells grow to confluency (approx. >75%–95%) within 7–8 days. All steps are done under sterile conditions. B. Membrane Preparation: The cells are washed twice gently with Hank's Balanced Salt solution (e.g. use 10 mL per T-150 flask). The excess solution is removed and the cells bathed for 15–30 min. in an enzyme-free Cell Dissociation Buffer (e.g. use 8 mL Hank's Based, Gibco Cat. # 13150-016 per T-150 flask) until cells are loosened. The contents are transferred to centrifuge tubes (50 mL) kept in an ice bath. All subsequent steps are done at 4° C. The tubes are centrifuged at 300× g for 15 min (1380 rpm on SORVAL, Model RT6000D, using the rotor for 50 mL tubes). The supernatant is discarded and the cells suspended in homogeneizing buffer(10 mM Tris-HCl containing 0.25 M sucrose and 1 mM EDTA, pH 7.4) ensuring that the volume of the buffer is about ten times the volume of the cell pellet. The cells are pooled into a centrifuge tube (50 mL) and homogenized with a Polytron at setting 6 for 10 sec. The homogenate is transferred into a Potter-Elvjehm homogeneizer and homogenized with 3 strokes. The homogenate is centrifuged at 1500×g for 60 min at 4° C. (3100 rpm using SORVAL, model RT6000D, using the rotor for 50 mL tubes). The pellet is discarded. The supernatant is centrifuged at 100,000×g for 60 min. at 4° C. (Beckman L8-80M ultracentrifuge; spin at 37,500 rpm with rotor type 70 Ti for 50 mL tubes; 38,000 rpm with type 80Ti for 15 mL tubes; or 35,800 rpm with rotor type 45Ti). The supernantant is discarded and the pellet suspended in 3 to 4 mL of Tris buffer (50 mM TRIS-HCl, pH 7.4). The protein content is estimated by the Bradford or Lowry method. The volume of the membrane suspension is adjusted with the membrane buffer (50 mM Tris-HCl containing 0.1% BSA and 0.1 mM PMSF) to give 3.0 mg/mL (or as appropriate) of protein. The membranes are aliquoted and stored at −70° C. C. Radioligand Binding Assay: In wells of a 96-well format microtiter plate, is added 90, 110 or 130 μL (to make up a final volume of 200 μL) of assay buffer containing 50 mM of Tris-HCl (pH 7.4), […], 1 mg % aprotinin, 1 mg % leupeptin, 2 mg % 1,10-phenanthroline, 10 mg % trypsin inhibitor, and 0.1 mM PMSF. The inhibitors are added on the day of the experiment. […]

Sequence of human V2 vasopressin receptor subtype (P30518 whole entry): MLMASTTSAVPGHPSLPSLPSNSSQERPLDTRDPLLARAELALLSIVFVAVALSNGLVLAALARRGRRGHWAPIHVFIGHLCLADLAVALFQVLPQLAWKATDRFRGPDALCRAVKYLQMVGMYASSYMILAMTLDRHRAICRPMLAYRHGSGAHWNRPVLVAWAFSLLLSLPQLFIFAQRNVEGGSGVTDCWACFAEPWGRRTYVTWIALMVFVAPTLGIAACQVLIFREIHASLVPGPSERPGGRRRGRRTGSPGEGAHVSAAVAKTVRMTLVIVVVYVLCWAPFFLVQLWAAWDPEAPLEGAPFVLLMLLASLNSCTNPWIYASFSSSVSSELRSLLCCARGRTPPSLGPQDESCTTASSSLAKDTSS

Row | SMILES | inhibition at 0.1 µM | V2 % inhibition at 100 nM | other results
1 | O=C(c1ccc(C2CCCCC2)cc1)N1Cc2ccc(C(=O)C(Cl)(Cl)Cl)n2Cc2ccccc21 [Example 7, 2,2,2-Trichloro-1-[10-(4-cyclohexyl-benzoyl)-10,11-dihydro-5H-pyrrolo[2,1-c][1,4]benzodiazepin-3-yl]-1-ethanone] | 10% | – | –
2 | O=C(c1ccc2n1Cc1ccccc1N(C(=O)c1ccc(C3CCCCC3)cc1)C2)N1CCN(c2ccccn2)CC1 [Example 28, [10-(4-Cyclohexyl-benzoyl)-10,11-dihydro-5H-pyrrolo[2,1-c][1,4]benzodiazepine 3-yl][4-(2-pyridinyl)-1-piperazinyl]-methanone] | – | – | IC50: > 1 µM
3 | O=C(NNC(=O)c1ccc2n1Cc1ccccc1N(C(=O)c1ccc(C3CCCCC3)cc1)C2)Nc1ccccc1 [Example 15, 2-{[10-(4-Cyclohexyl-benzoyl)-10,11-dihydro-5H-pyrrolo[2,1-c][1,4]benzodiazepin-3-yl]carbonyl}-N-phenyl-1-hydrazinecarboxamide] | 11% | – | –
4 | Cc1cccc(C(=O)NNC(=O)c2ccc3n2Cc2ccccc2N(C(=O)c2ccc(C4CCCCC4)cc2)C3)c1 [Example 14, 10-(4-Cyclohexyl-benzoyl)-N′-(3-methyl-benzoyl)-10,11-dihydro-5H-pyrrolo[2,1-c][1,4]benzodiazepine-3-carbonyl-hydrazide] | – | 4% | –
5 | O=C(C(=O)N1CCC(N2CCCCC2)CC1)c1ccc2n1Cc1ccccc1N(C(=O)c1ccc(C3CCCCC3)cc1)C2 [Example 31, 1-[1.4′]Bipiperidinyl-1′-yl-2-[10-(4-cyclohexyl-benzoyl)-10,11-dihydro-5H-pyrrolo[2,1-c][1,4]benzodiazepin-3-yl]-ethane-1,2-dione] | – | 2% | –
6 | CN1CCN(C(=O)c2ccc3n2Cc2ccccc2N(C(=O)c2ccc(C4CCCCC4)cc2)C3)CC1 [Example 24, [10-(4-Cyclohexyl-benzoyl)-10,11-dihydro-5H-pyrrolo[2,1-c][1,4]benzodiazepin-3-yl](4-methyl-1-piperazinyl)-methanone] | – | – | IC50: > 1 µM
7 | O=C(NNC(=O)C1CC1)c1ccc2n1Cc1ccccc1N(C(=O)c1ccc(C3CCCCC3)cc1)C2 [Example 13, 10-(4-Cyclohexyl-benzoyl)-N′-(cyclopropylcarbonyl)-10,11-dihydro-5H-pyrrolo[2,1-c][1,4]benzodiazepine-3-carbonyl-hydrazide] | – | 18% | –
8 | COC(=O)c1ccc2c(c1)N(C(=O)c1ccc(C3CCCCC3)cc1)Cc1ccc(C(=O)N3CCN(C)CC3)n1C2.Cl [Example 1, Methyl 10-(4-cyclohexylbenzoyl)-3-[(4-methyl-1-piperazinyl)carbonyl]-10,11-dihydro-5H-pyrrolo[2,1-c][1,4]benzodiazepine-8-carboxylate hydrochloride salt] | 3% | – | –

More lines, main results first:

Row | inhibition at 0.1 µM | V2 % inhibition at 100 nM | SMILES | other results
9 | 4% | – | O=C(c1ccc2n1Cc1ccccc1N(C(=O)c1ccc(C3CCCCC3)cc1)C2)N1CCN(CCN2CCOCC2)CC1 [Example 42, [10(4-Cyclohexyl-benzoyl)-10,11-dihydro-5H-pyrrolo[2,1-c][1,4]benzodiazepin-3-yl]{4-[2-(4-morpholinyl)ethyl]-1-piperazinyl}methanone] | –
10 | – | 0% | CN(C)[C@@H]1CCN(C(=O)c2ccc3n2Cc2ccccc2N(C(=O)c2ccc(C4CCCCC4)cc2)C3)C1 [Example 47, [10-(4-Cyclohexyl-benzoyl)-10,11-dihydro-5H-pyrrolo[2,1-C][1,4]benzodiazepin-3-yl][(3R)-3-(dimethylamino)pyrrolidinyl]methanone] | –
11 | 1% | – | CC(C)N1CCN(C(=O)c2ccc3n2Cc2ccccc2N(C(=O)c2ccc(C4CCCCC4)cc2)C3)CC1 [Example 44, [10-(4-Cyclohexyl-benzoyl)-10,11-dihydro-5H-pyrrolo[2,1-c][1,4]benzodiazepin-3-yl](4-isopropyl-1-piperazinyl)methanone] | –
12 | 10% | – | CN(C)CCCN1CCN(C(=O)c2ccc3n2Cc2ccccc2N(C(=O)c2ccc(C4CCCCC4)cc2)C3)CC1 [Example 45, [10-(4-Cyclohexyl-benzoyl)-10,11-dihydro-5H-pyrrolo[2,1-c][1,4]benzodiazepin-3-yl]{4-[3-(dimethylamino)propyl]-1-piperazinyl}methanone] | –
